Experimental data published in patent US20140256771A1, “COMPOUNDS THAT MODULATE INTRACELLULAR CALCIUM” (CalciMedica, Inc., priority 2011, published 2014).
Read-outs that look alike come from different tables or passages of the source.

How the values were obtained:
RBL-2H3 cells = test: Fluorescence-based assay of store-operated calcium entry in RBL-2H3 cells; format: cell-based, rat; conditions: Rattus norvegicus, RBL-2H3, thapsigargin store depletion, 50% inhibition of Upslope, read-out: RBL-2H3 (IC50, μmol)
Protocol: B. Fluorescence-based Assay of Store-Operated Calcium Entry in RBL-2H3Cells.
RBL-2H3 cells are obtained from ATCC and maintained in complete medium with 10% FBS at 37° C./6% CO2.
The day prior to performing the assay, RBL-2H3 cells are plated in 50 μL of complete medium in a 384 well plate. Cells are grown at 37° C./6% CO2 overnight and grow to 50-60% confluence by the next day. On the assay day, 1.5 μM Fluo-4-AM dye (Invitrogen) in complete medium is added and incubated for 1 hour at RT. Cells are washed twice in Ca^2+-free HBSS buffer and 35 μL Ca^2+-free HBSS buffer is added to each well. 10 μL of a test compound prepared in a Ca^2+-free HBSS solution at 4.5× of the desired concentration is added to a well and incubated for 5 minutes at RT. 10 μL of thapsigargin prepared in a Ca^2+-free HBSS solution at 5.5× of the desired concentration (5.5 uM) is added to each well and incubated for an additional 25 minutes. The initial baseline fluorescence signal is measured with a FLIPR^384 (Molecular Devices) plate reader. 5 μL of 12× calcium in HBSS (12 mM) is added and changes in cellular fluorescence are measured with the FLIPR^384 plate reader. In each well, the change in the fluorescent signal as a function of time due to calcium entry into the cell is determined by calculating the difference between the fluorescent signal measured 7 seconds after calcium addition and the initial baseline fluorescence signal at time zero (t=0). This parameter is designated Upslope. The IC50 value is calculated as the concentration at which 50% of the Upslope is inhibited.

Orai1/STIM1 = target: T1, Orai1/STIM1 (Homo sapiens, UniProt Q96D31); test: Fluorescence-based assay of store-operated calcium entry in Orai1/STIM1 stable cells; format: cell-based; conditions: HEK-293 cells stably expressing human STIM1 and Orai1, 50% inhibition of Peak-Basal fluo-4 signal; for IC50: read-out: Orai1/STIM1 (IC50, μmol)
T1 construct: expressed in transfected cells; host or cells: HEK-293
T1 sequence (Q96D31 whole entry): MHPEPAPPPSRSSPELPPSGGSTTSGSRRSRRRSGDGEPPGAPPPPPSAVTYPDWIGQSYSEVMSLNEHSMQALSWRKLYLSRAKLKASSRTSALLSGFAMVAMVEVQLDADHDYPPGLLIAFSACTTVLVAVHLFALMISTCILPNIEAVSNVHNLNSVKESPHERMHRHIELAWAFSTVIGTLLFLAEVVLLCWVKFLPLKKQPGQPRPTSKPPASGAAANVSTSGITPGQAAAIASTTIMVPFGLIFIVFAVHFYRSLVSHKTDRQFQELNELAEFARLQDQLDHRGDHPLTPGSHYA
Protocol: A. Fluorescence-based Assay of Store-Operated Calcium Entry in Orai1/STIM1 Stable Cells.
Cells stably expressing recombinant human STIM1 and Orai1 are generated by transfecting a human Orai1 expression plasmid (pcDNA3.1-Orai1-cmyc) into HEK-293 cells stably overexpressing human STIM1 (Roos et al. 2005 JCB 169(3): 435-445). Colonies of cells stably expressing both STIM1 and Orai1 proteins are selected and then subcloned by limiting dilution. Cells were cultured at 37° C./6% CO2 in complete medium with 10% FBS and appropriate selection markers.
The day prior to performing the assay Orai1/STIM1 stable cells are plated in 50 μL of complete medium at 90-95% confluence in a 384 well plate. Cells are grown at 37° C./6% CO2 overnight. On the day of the assay, 1.5 μM fluo-4-AM (Invitrogen) in complete medium is added to the cells, which are then incubated for 1 hour at RT. Cells are washed once in Ca^2+-free HBSS (Hank's buffered saline solution) and 35 μl of Ca^2+-free HBSS is added to each well. Test compounds are added to wells in a 10 μL Ca^2+-free HBSS solution, prepared at 4.5× the desired final concentration, and incubated for 30 minutes at RT. The initial baseline fluorescence signal is then measured with a FLIPR^384 (Molecular Devices) plate reader. Calcium entry is initiated by adding 5 μl of 10× CaCl2 (10 mM) in HBSS, and changes in cellular fluorescence are measured with the FLIPR^384 plate reader. In each well, the magnitude of the fluorescence signal as a result of calcium entry into the cell is determined by calculating the difference between the peak fluorescence signal measured after calcium addition and the initial baseline fluorescence signal (designated Peak-Basal). IC50 values are typically calculated as the concentration that inhibited 50% of the Peak-Basal signal (Table A).

SMILES	IC50 (RBL-2H3 cells; Table iii) [nM]	IC50 (Orai1/STIM1; Table iii) [nM]	IC50 (RBL-2H3 cells; Table iv) [nM]	IC50 (Orai1/STIM1; Table iv) [nM]	Orai1/STIM1 (IC50, μmol) (Orai1/STIM1; Table iii)
Cc1cc(C(F)(F)F)nn1-c1ccc(NCc2c(F)ccc(F)c2F)cc1	< 600	< 600			
Cc1nn(C(F)F)cc1-c1ccc(NCc2ccccc2F)cc1F	< 600	< 600			
O=C(Nc1ccc(-n2nc(C(F)(F)F)cc2C(F)(F)F)cc1)c1c(F)cncc1F			< 600	> 1200	
Cn1nc(C(F)(F)F)cc1-c1ccc(NC(=O)c2c(F)ccc(F)c2F)cc1			< 600	< 600	
Cn1nc(C(F)(F)F)cc1-c1c(F)cc(NCc2c(F)cccc2F)cc1F	< 600	600 to 1200			
Cn1nc(C(F)(F)F)cc1-c1c(F)cc(NCc2ccccc2F)cc1F	< 600				Max inh. <50%
Cc1cc2c(cc1-c1ccc(NCc3cncc(F)c3)cc1)OC(F)(F)O2	< 600	600 to 1200			
Cn1nc(C(F)(F)F)cc1-c1ccc(NCc2ccc(F)cc2F)cc1	< 600	< 600			
Cc1ccccc1CNc1ccc(-c2cn(C(F)F)nc2C)c(F)c1	< 600	600 to 1200			
Cn1nc(C(F)(F)F)cc1-c1ccc(NC(=O)c2cncc(F)c2)cc1F			600 to 1200	< 600	
Cn1nc(C(F)(F)F)cc1-c1ccc(NC(=O)c2c(Cl)cnn2C)cc1			< 600	< 600	
Cc1cc(F)ccc1C(=O)Nc1ccc(-n2nc(C(F)(F)F)cc2C)c(F)c1			< 600	600 to 1200	
Cc1cc2c(cc1-c1ccc(NCc3c(F)cncc3F)cc1F)OC(F)(F)O2	< 600	600 to 1200			
Cc1cccc(F)c1C(=O)Nc1ccc(-c2cc(C(F)(F)F)nn2C)c(F)c1			< 600	< 600	
Cc1cc(F)ccc1CNc1ccc(-n2nc(C(F)(F)F)cc2C)c(F)c1	< 600	600 to 1200			
Cc1cc(F)ccc1C(=O)Nc1ccc(-c2cc(C(F)F)nn2C)c(F)c1			< 600	< 600	
Cc1cccc(F)c1CNc1ccc(-c2cn(C(F)F)nc2C)c(F)c1	< 600	< 600			
Cc1nc(C(F)(F)F)cn1-c1ccc(NCc2c(F)cncc2F)cc1F	< 600	< 600			
Cc1nc(C(F)(F)F)cn1-c1ccc(NC(=O)c2c(F)ccc(F)c2F)cc1			< 600	> 1200	
Cc1nn(C(F)F)cc1-c1ccc(NCc2c(F)cccc2F)cc1F	< 600	< 600			
Cc1nn(C(F)F)cc1-c1ccc(NCc2c(F)cccc2F)cc1	< 600	< 600			
Cc1nc(C(F)(F)F)cn1-c1ccc(NCc2c(F)cccc2F)cc1	< 600	< 600			
Cc1cccc(F)c1CNc1ccc(-c2cc(C(F)(F)F)nn2C)c(F)c1	< 600	< 600			
Cn1nc(C(F)(F)F)cc1-c1ccc(NCc2c(F)ccc(F)c2F)cc1F	< 600	< 600			
Cc1cc2c(cc1-c1ccc(NCc3c(F)cncc3F)cc1)OC(F)(F)O2	< 600	< 600			
Cc1nn(C(F)F)cc1-c1ccc(NCc2c(F)cc(F)cc2F)cc1F	< 600	< 600			
Cn1nc(C(F)(F)F)cc1-c1ccc(NCc2cncc(F)c2)cc1F	< 600	600 to 1200			
Cn1nc(C(F)(F)F)cc1-c1ccc(NCc2ccccc2F)cc1F	< 600	< 600			
Cc1sc(C(F)(F)F)nc1-c1ccc(NC(=O)c2ccccc2F)cc1			< 600	< 600	
